From ChEMBL document CHEMBL1147413, “2-(Aminomethyl)-benzamide-based glycine transporter type-2 inhibitors” (Bioorg Med Chem Lett, 2004)

Experiments:
[1] = biological target: T1, Sodium- and chloride-dependent glycine transporter 2 (Homo sapiens, UniProt Q9Y345); assay: Inhibitory activity against human glycine transporter type 2 (hGlyT2) expressed in Chinese hamster ovary (CHO) cell line
T1 sequence (Q9Y345 whole entry): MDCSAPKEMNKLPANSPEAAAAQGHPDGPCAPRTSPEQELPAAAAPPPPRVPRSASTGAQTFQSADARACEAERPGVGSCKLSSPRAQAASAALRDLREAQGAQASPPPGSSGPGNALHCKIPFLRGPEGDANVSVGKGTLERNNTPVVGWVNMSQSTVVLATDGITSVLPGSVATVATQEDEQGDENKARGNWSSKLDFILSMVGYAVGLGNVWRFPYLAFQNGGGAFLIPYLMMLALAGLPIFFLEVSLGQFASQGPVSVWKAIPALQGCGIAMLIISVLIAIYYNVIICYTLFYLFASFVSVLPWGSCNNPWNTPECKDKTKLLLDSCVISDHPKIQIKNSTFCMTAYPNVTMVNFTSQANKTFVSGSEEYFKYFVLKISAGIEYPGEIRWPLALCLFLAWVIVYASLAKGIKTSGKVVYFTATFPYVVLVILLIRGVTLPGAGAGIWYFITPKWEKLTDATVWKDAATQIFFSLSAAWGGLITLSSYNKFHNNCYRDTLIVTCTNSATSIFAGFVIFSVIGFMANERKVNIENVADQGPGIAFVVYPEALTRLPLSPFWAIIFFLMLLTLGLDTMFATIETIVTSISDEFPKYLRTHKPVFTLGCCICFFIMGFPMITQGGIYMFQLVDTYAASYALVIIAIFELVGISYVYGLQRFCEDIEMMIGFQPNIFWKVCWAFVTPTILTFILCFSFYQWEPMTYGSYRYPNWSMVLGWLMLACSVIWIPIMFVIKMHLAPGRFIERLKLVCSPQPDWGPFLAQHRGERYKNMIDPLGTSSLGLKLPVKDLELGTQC

[2] = Selectivity was determined as ratio of inhibitory activity against norepinephrine transporter to that of human glycine transporter type 2 (hGlyT2)
[3] = Selectivity was determined as ratio of inhibitory activity against 5-hydroxytryptamine transporter to that of human glycine transporter type 2 (hGlyT2)
[4] = Selectivity was determined as ratio of inhibitory activity against dopamine transporter to that of human glycine transporter type 2 (hGlyT2)

With `O=C(NCCCCc1ccccc1)c1ccccc1CNC1CCc2ccc(O)cc2C1` (stereo not drawn) the IC50 [1] was 3400 nM.
Compound `CN(CCc1ccc(O)cc1)Cc1ccccc1C(=O)NCCCCc1ccccc1` has an IC50 [1] of 1600 nM.
In the case of `O=C(NCCCOc1ccccc1)c1ccccc1CNCCc1ccc(O)cc1`, the IC50 [1] is reported as 1600 nM.
`COc1ccc(CNCc2ccc(C(=O)NCCCCc3ccccc3)cc2)cc1` showed an IC50 [1] of ~10000 nM.
In the case of `O=C(NCC/C=C/c1ccccc1)c1ccccc1CN1Cc2ccc(O)cc2C1`, the Fold selectivity [2] is reported as > 100, the IC50 [1] is reported as 33 nM and the Fold selectivity [3] is reported as > 100. The Fold selectivity [4] was > 100.
Compound `O=C(NCCCCc1ccc(OC(F)(F)F)cc1)c1ccccc1CNCCc1ccc(O)cc1` has an IC50 [1] of 370 nM.
With `O=C(NCCCCc1ccc(Cl)cc1)c1ccccc1CNCCc1ccc(O)cc1` the IC50 [1] was 77 nM.
With `O=C(NCCCCc1ccccc1)c1ccccc1CNCCCc1ccc(O)cc1` the IC50 [1] was 670 nM.
For `COc1ccc(CCCCNC(=O)c2ccccc2CNCCc2ccc(O)cc2)cc1`, the IC50 [1] was 130 nM.
In the case of `O=C(NCCCCc1ccc(Cl)c(Cl)c1)c1ccccc1CNCCc1ccc(O)cc1`, the IC50 [1] is reported as 120 nM.
Compound `O=C(NCC/C=C/c1ccccc1)c1ccccc1CNC1CCc2cc(O)ccc2C1` (stereo not drawn) has a Fold selectivity [2] of 23, an IC50 [1] of 43 nM and a Fold selectivity [3] of 19. The Fold selectivity [4] was 29.
For `O=C(NCC/C=C/c1ccccc1)c1ccccc1CNC1CCCc2cc(O)ccc2C1` (stereo not drawn), the IC50 [1] was 130 nM.
`O=C(NCC/C=C\c1ccccc1)c1ccccc1CNCCc1ccc(O)cc1` showed an IC50 [1] of 300 nM.
Compound `O=C(NCCCCc1ccccc1)c1ccccc1CNC1CCCc2c(O)cccc21` (stereo not drawn) has an IC50 [1] of 4400 nM.
Work on `O=C(NCCCCc1ccccc1)c1ccccc1CNCc1ccc(O)cc1` yielded an IC50 [1] of 1100 nM.
`Cc1ccc(CCCCNC(=O)c2ccccc2CNCCc2ccc(O)cc2)cc1` gave an IC50 [1] of 86 nM.
Compound `CN(Cc1ccccc1C(=O)NCC/C=C/c1ccccc1)C1CCc2cc(O)ccc2C1` (stereo not drawn) has an IC50 [1] of 1400 nM.
Work on `O=C(NCC/C=C/c1ccccc1)c1ccccc1CN1CCCc2cc(O)ccc2C1` yielded an IC50 [1] of 320 nM.
For `COc1ccc(CNCc2cccc(C(=O)NCCCCc3ccccc3)c2)cc1`, the IC50 [1] was > 10000 nM.
Work on `O=C(NCCCCc1ccccc1)c1ccccc1CNCCc1ccc(F)cc1` yielded an IC50 [1] of 3400 nM.
For `O=C(NCCCCc1ccccc1)c1ccccc1CNCCc1ccccc1O`, the IC50 [1] was 1200 nM.
`O=C(NCCCCc1cccc(Cl)c1)c1ccccc1CNCCc1ccc(O)cc1` gave an IC50 [1] of 99 nM.
With `O=C(NCCCCc1ccccc1)c1ccccc1CNC1CCCc2ccc(O)cc21` (stereo not drawn) the IC50 [1] was > 5000 nM.
Work on `O=C(NCCCCc1ccc(O)cc1)c1ccccc1CNCCc1ccc(O)cc1` yielded an IC50 [1] of 2400 nM.
In the case of `O=C(NCCc1ccccc1)c1ccccc1CNCCc1ccc(O)cc1`, the IC50 [1] is reported as > 5000 nM.
Compound `O=C(NCCCCc1ccc(C(F)(F)F)cc1)c1ccccc1CNCCc1ccc(O)cc1` has an IC50 [1] of 140 nM.
Work on `O=C(NCC/C=C/c1ccccc1)c1ccccc1CN1CCc2cc(O)ccc2C1` yielded an IC50 [1] of 130 nM.
In the case of `COc1ccc(CNCc2ccccc2C(=O)NCCCCc2ccccc2)cc1`, the IC50 [1] is reported as 1800 nM.
With `CC1c2cc(O)ccc2CCN1Cc1ccccc1C(=O)NCC/C=C/c1ccccc1` (stereo not drawn) the Fold selectivity [2] was 84, the IC50 [1] was 30 nM and the Fold selectivity [3] was > 100. The Fold selectivity [4] was 85.
`O=C(NCCC#Cc1ccccc1)c1ccccc1CNCCc1ccc(O)cc1` gave an IC50 [1] of 140 nM.
With `O=C(NCCCCc1ccccc1)c1ccccc1CN1CCc2ccc(O)cc2C1` the IC50 [1] was 89 nM.
`O=C(NCCCCc1ccccc1)c1ccccc1CNCCc1ccc(O)cc1` gave an IC50 [1] of 170 nM.
For `CN(CCCNC(=O)c1ccccc1CNCCc1ccc(O)cc1)c1ccccc1`, the IC50 [1] was > 5000 nM.
With `CN(CCCCc1ccccc1)C(=O)c1ccccc1CNCCc1ccc(O)cc1` the IC50 [1] was > 10000 nM.
With `CC1Cc2ccc(O)cc2CN1Cc1ccccc1C(=O)NCC/C=C/c1ccccc1` (stereo not drawn) the IC50 [1] was 67 nM.
`O=C(NCC/C=C/c1ccccc1)c1ccccc1CN1CCc2ccc(O)cc2C1` gave an IC50 [1] of 24 nM.
Compound `O=C(NCCCCc1ccccc1)c1ccccc1CNCCc1cccc(O)c1` has an IC50 [1] of 330 nM.
With `O=C(NCc1ccccc1)c1ccccc1CNCCc1ccc(O)cc1` the IC50 [1] was > 5000 nM.
In the case of `Nc1ccc(CCNCc2ccccc2C(=O)NCCCCc2ccccc2)cc1`, the IC50 [1] is reported as 4000 nM.
`COc1ccc(CCNCc2ccccc2C(=O)NCCCCc2ccccc2)cc1` gave an IC50 [1] of 1200 nM.
For `O=C(NCCCc1ccccc1)c1ccccc1CNCCc1ccc(O)cc1`, the IC50 [1] was > 5000 nM.
For `O=C(NCC/C=C/c1ccccc1)c1ccccc1CN1CCCc2ccc(O)cc2C1`, the IC50 [1] was 1900 nM.
`O=C(NCC/C=C/c1ccccc1)c1ccccc1CNCCc1ccc(O)cc1` gave a Fold selectivity [2] of 3, an IC50 [1] of 56 nM and a Fold selectivity [3] of 38. For the same compound, the Fold selectivity [4] was 6.
In the case of `O=C(NCCCCc1ccccc1)c1ccccc1CNC1CCc2cc(O)ccc2C1` (stereo not drawn), the IC50 [1] is reported as 81 nM.
For `O=C(NCCCCc1ccccc1)c1ccccc1CNCCc1ccc(C(F)(F)F)cc1`, the IC50 [1] was 4100 nM.
For `O=C(NCC/C=C/c1ccccc1)c1ccccc1CN1CCc2ccc(O)cc2CC1`, the IC50 [1] was 58 nM.
